Data reported in US10071063B2, “Specific mTOR inhibitors in the treatment of X-linked adrenoleukodystrophy” (FUNDACIÓN DE LA COMUNIDAD VALENCIANA CENTRO DE …, priority 2014, dated 2018).
Read-outs that look alike come from different tables or passages of the source.

Key:
[1] = tested on: control and X-ALD patient fibroblasts; test: Pulse-chase degradation of long-lived proteins in fibroblasts treated with VLCFA; type: cell-based, human; settings: C26:0 50 μM 24 h, high proteolysis medium; for inhibition at 50 µM: Homo sapiens, Fibroblast, control fibroblasts
Method: (§1) Skin biopsies to prepare fibroblasts were collected according to the institutional guidelines for sampling, including informed consent from the persons involved or their representatives. Primary human fibroblasts were cultured in DMEM (containing 10% fetal bovine serum, 100 U/ml penicillin and 100 μg streptomycin) at 37° C. in humidified 5% CO2/95% air. Unless otherwise stated, experiments were carried out with cells at 80% confluence. For starvation conditions (high proteolysis medium, H), cells were switched, after washing, from full growth medium (see above, low proteolysis medium, L) to Krebs-Henseleit medium (118.4 mM NaCl, 4.75 mM KCl, 1.19 mM KH2PO4, 2.54 mM MgSO4, 2.44 mM CaCl2.2H2O, 28.6 mM NaHCO3, 10 mM glucose) containing 10 mM Hepes, pH 7.4 (high proteolysis medium, H) and incubated for 4 h or less at 37° C.
For pulse-chase experiments, human control and X-ALD patient fibroblasts were incubated for 48 h in fresh full medium with 1 μCi/ml [3H]valine (Hartmann Analytic Gmbh), followed by a 24 h chase in fresh full medium containing 10 mM L-valine to degrade short-lived proteins. Then, all cultures were incubated for the indicated times in Krebs-Henseleit medium with 10 mM Hepes, pH 7.4, containing 10 mM valine and the indicated additions. Protein degradation, which was analysed 1 h later to ensure maximal effects of the various additions and for only 3 h to avoid possible secondary effects, was calculated at two intervals of 1.5 h by measuring the net release of trichloroacetic acid-soluble radioactivity from the labelled cells into the culture medium and expressed as percentage of protein degraded. The contribution of lysosomal degradation to total protein degradation was calculated using 20 mM NH4Cl (Sigma-Aldrich) plus 100 μM leupeptin (Peptide Institute), as previously described (Fuertes G, et al, 2003, Biochem J 375, 75-86).
In X-ALD, VLCFA accumulate. The effect of the addition of an excess of hexacosanoic acid to fibroblasts isolated from controls and X-ALD patients was tested. First, the degradation of intracellular proteins was analyzed to determine if it was any alteration in control and X-ALD fibroblasts upon addition of an excess of VLCFA, by analyzing in pulse-chase experiments the degradation of long-lived proteins under starvation. Total protein degradation and also, separately, lysosomal protein degradation were estimated by procedures previously described (Fuertes G, et al, 2003, Biochem J 375, 75-86).

[2] = tested on: control and X-ALD fibroblasts; test: Immunoblot of LC3-II and p62 in fibroblasts treated or not with VLCFA; type: cell-based, human; settings: excess of VLCFA
Method: as §1
(§2) Tissues were removed from euthanized mice and flash-frozen on liquid nitrogen. Frozen tissues and human fibroblasts samples were homogenized in RIPA buffer (Cell Signaling Technology) using a motor-driven grinder (Sigma-Aldrich), and then sonicated for 2 min at 4° C. in an Ultrasonic processor UP50H (Hielscher-Ultrasound Technology). Samples were subjected to polyacrylamide (10% acrylamide) gel electrophoresis for 60 min at […]. Resolved proteins were transferred onto nitrocellulose membranes and proteins were detected with ECL Western blotting analysis system followed by exposure to CL-XPosure Film (Thermo Scientific). Autoradiographs were scanned and quantified using a GS800 Densitometer (Bio-Rad).
Then, the LC3-II and p62 levels in cell extracts from control and X-ALD fibroblasts treated or not with VLCFA were determined by immunoblot analysis.

[3] = cited from earlier work
Abcd1 null mice = test: Dose tests of temsirolimus in Abcd1 null mice (body response, weight); type: in vivo, mouse
Source text: (§3) All methods employed in this study were in accordance with the Guide for the Care and Use of Laboratory Animals published by the US National Institutes of Health (NIH publication No. 85-23, revised 1996) and the ethical committees of IDIBELL and the Generalitat de Catalunya. The generation and genotyping of Abcd1 null mice have been previously described. Mice used for experiments were on a pure C57BL/6J background. Abcd1 null and wild type mice were separated into control and treated groups. Temsirolimus (LC laboratories) was administered by intraperitoneal injections three times a week at a dose of 20 mg/kg for 3 months with alternate 3-weeks rest periods between each month of treatment. Control mice were given a placebo injection containing buffer only with the same frequency. Treadmill test was carried out exactly as previously described (López-Erauskin J, et al, 2011, Ann Neurol 70, 84-92). The latency to falling off the belt (time of shocks in seconds) and the number of received shocks were measured. Bar cross test was performed as previously described (López-Erauskin J, et al, 2011, Ann Neurol 70, 84-92). Placebo and drug treated mice within each litter were tested on the treadmill simultaneously and at the time of testing were not identified as to their treatment status.
10 month-old Abcd1 null mice were treated with temsirolimus, or vehicle (control), administered by intraperitoneal injection as described previously. Doses tests in order to check mice's body response was firstly performed. […] Thus, to prevent side effects other treatment conditions: intraperitoneal injections of temsirolimus for 3 months with alternate 3-weeks rest periods between each month of treatment, were tested.

Abcd1−/−/Abcd2−/− mice [4] = test: Immunohistochemistry of axonal degeneration markers in spinal cord of Abcd1−/−/Abcd2−/− mice; type: in vivo, mouse
Source text: as §3
Spinal cords were harvested from 20-month-old mice (wild type, Abcd1−/−/Abcd2−/− and Abcd1−/−/Abcd2−/− treated with temsirolimus), after perfusion with 4% paraformaldehyde and prepared and incubated for immunohistochemistry as described (López-Erauskin J, et al, 2011. Ann Neurol 70, 84-92).

Abcd1−/−/Abcd2−/− mice [5] = test: Bar cross test; type: in vivo, mouse; settings: Abcd1−/−/Abcd2−/− mice at 20 months of age
mTOR = test: p70S6K phosphorylation (mTOR activity) by Western blot in spinal cord of treated Abcd1−/− mice; type: in vivo, mouse; settings: temsirolimus 20 mg/kg i.p. three times a week, 3 months with rest periods
Source text: as §3, with “Bar cross test was performed as previously described (López-Erauskin J, et al, 2011, Ann Neurol 70, 84-92). Placebo and drug treated mice within each litter were tested on the treadmill simultaneously and at the time of testing were not identified as to their treatment status.” left out
(§4) Tissues were removed from euthanized mice and flash-frozen on liquid nitrogen. […] Resolved proteins were transferred onto nitrocellulose membranes and proteins were detected with ECL Western blotting analysis system followed by exposure to CL-XPosure Film (Thermo Scientific). Autoradiographs were scanned and quantified using a GS800 Densitometer (Bio-Rad).

[6] = tested on: Abcd1−/− mouse spinal cord; test: Oxidized proteins, ATP levels, proteasome activity and immunoproteasome subunits in spinal cord of temsirolimus-treated Abcd1−/− mice; type: in vivo; settings: temsirolimus 20 mg/kg i.p.
Source text: as §3
Total RNA was isolated from homogenized spinal cord using the RNeasy mini kit (Qiagen), according to the manufacturer's instructions. RNA samples with RNA Integrity Number (RIN) above 8 and 28S/18S ratio higher than 1 were used for the experiments. Then, first strand cDNA was synthesized for each RNA sample using Superscript II reverse transcriptase (Invitrogen) and random primers. The expression of the candidate proteasome genes was analysed by RQ-PCR using TaqMan® Gene Expression Assays (Applied Biosystems).
Relative quantitation was carried out using the ‘Delta-Delta Ct’ (ΔΔCt) method with tubby RNA as endogenous control. Transcript quantification was performed in duplicate for each sample.
as §2
ATP levels were measured as previously described (Galino J, et al 2011, Antioxid Redox Signal 15, 2095-2107). For proteasome activity assays, tissues were homogenized in an ice-cold buffer (50 mM Tris-HCl pH 7.5, 1 mM dithiothreitol, 0.25 M sucrose, 5 mM MgCl2, 0.5 mM EDTA with 2 mM ATP), using a teflon-on-glass homogenizer, and centrifuged at 12,000×g for 10 min. Chymotrypsin-like activity of proteasomes was determined as described (Launay N, et el, 2013 Brain 136, 891-904), using Suc-LLVY-AMC as substrate. […] The free AMC fluorescence was quantified with a fluorescence multiplate FLUOstar OPTIMA FL reader (BMG) with excitation and emission wavelengths at 380 and 460 nm, respectively. […] All reactions were carried out in duplicate and readings were calibrated using standard solutions of the fluorophores.

[7] = tested on: Abcd1−/− mouse spinal cord; test: Western blot of autophagy markers LC3-II and p62 in spinal cord of treated Abcd1−/− mice; type: in vivo; settings: temsirolimus 20 mg/kg i.p. three times a week, 3 months with rest periods
Source text: as §3, with “Bar cross test was performed as previously described (López-Erauskin J, et al, 2011, Ann Neurol 70, 84-92). Placebo and drug treated mice within each litter were tested on the treadmill simultaneously and at the time of testing were not identified as to their treatment status.” left out
as §4

Abcd1−/−/Abcd2−/− mice [8] = test: Treadmill test; type: in vivo, mouse; settings: Abcd1−/−/Abcd2−/− mice at 20 months of age
[9] = intraperitoneal injections for 3 months with alternate 3-weeks rest periods between each month
[10] = spinal cord, 20-month-old Abcd1−/−/Abcd2−/− mice, to control levels
[11] = spinal cord, Abcd1−/−/Abcd2−/− mice, to control levels, data not shown
[12] = RT-PCR, Abcd1−/− mouse spinal cord

**Q.** Which results are given for `CCCCCCCCCCCCCCCCCCCCCCCCCC(=O)O` [VLCFA, Hexacosanoic acid]?
**A.** inhibition at 50 µM ([1]; read-out: inhibition of lysosomal degradation of long-lived proteins): ~40%; inhibition at 50 µM ([1]; read-out: inhibition of total degradation of long-lived proteins): ~15%; inhibition of lysosomal degradation of long-lived proteins ([1]; X-ALD fibroblasts): no significant inhibitions; inhibition of total degradation of long-lived proteins ([1]; X-ALD fibroblasts): no significant inhibitions; LC3-II levels ([2]; X-ALD fibroblasts): no significant differences; p62 levels ([2]; X-ALD fibroblasts): no significant differences; LC3-II levels ([2]; control fibroblasts): marked decrease; p62 levels ([2]; control fibroblasts): increase

**Q.** For `CO[C@H]1C[C@@H]2CC[C@@H](C)[C@@](O)(O2)C(=O)C(=O)N2CCCC[C@H]2C(=O)O[C@H]([C@H](C)C[C@@H]2CC[C@@H](O)[C@H](OC)C2)CC(=O)[C@H](C)/C=C(\C)[C@@H](O)[C@@H](OC)C(=O)[C@H](C)C[C@H](C)/C=C/C=C/C=C/1C` [rapamycin], which water solubility [3] is on record?
**A.** poor

**Q.** Which results are given for `CO[C@H]1C[C@@H]2CC[C@@H](C)[C@@](O)(O2)C(=O)C(=O)N2CCCC[C@H]2C(=O)O[C@H]([C@H](C)C[C@@H]2CC[C@@H](OC(=O)C(C)(CO)CO)[C@H](OC)C2)CC(=O)[C@H](C)/C=C(\C)[C@@H](O)[C@@H](OC)C(=O)[C@H](C)C[C@H](C)/C=C/C=C/C=C/1C` [temsirolimus, (3S,6R,7E,9R,10R,12R, 14S,15E,17E,19E,21S,23S,26R,27R,34aS)-9,10,12,13,14,21,22,23,24,25,26,27,32,33,34,34a-Hexa deca hydro-9,27-dihydroxy-3-[(1R)-2-[1S,3R,4R)-4-hydroxy-3-methoxycyclohexyl]-10,21-dimethoxy-6,8,12,14,20,26-hexa meth 3H-pyrido [2,1-][1,4]oxa azaclo hentriacontine-1,5,11,28,29(4H,6H,31H)-pentone 4′-[2,2-bis (hydroxymethyl)propionate]]?
**A.** body weight (Abcd1 null mice; continuous administration during 3 months, intraperitoneal, data not shown): important weight losses; body weight (Abcd1 null mice; [9]): without significant weight loss; locomotor performances (Abcd1 null mice; [9]): better; motor neurons health in spinal cord (Abcd1−/−/Abcd2−/− mice [4]; XALD mice): improve; accumulation of APP (axonal damage marker) (Abcd1−/−/Abcd2−/− mice [4]; [10]): reduced; accumulation of synaptophysin (axonal damage marker) (Abcd1−/−/Abcd2−/− mice [4]; [10]): reduced; DNA oxidation (Abcd1−/−/Abcd2−/− mice [4]; [11]): reduced; number of reactive astrocytes (Abcd1−/−/Abcd2−/− mice [4]; [11]): reduced; number of reactive microglia (Abcd1−/−/Abcd2−/− mice [4]; [11]): reduced; number of slips (Abcd1−/−/Abcd2−/− mice [5]): normalized; time needed to cross the bar (Abcd1−/−/Abcd2−/− mice [5]): normalized; immunoreactivity for total p70S6K (mTOR): did not change; phosphorylated p70S6K (mTOR): decrease; chymotrypsin-like proteasome activity ([6]; Abcd1−/− mouse spinal cord lysates): normalized; ATP levels ([6]; Abcd1−/− mouse spinal cord): normalizing; levels of oxidized proteins ([6]; Abcd1−/− mouse spinal cord): reduced considerably; induction of immunoproteasome subunit β1i/LMP2 [6, 12]: prevented the induction; induction of immunoproteasome subunit β5i/LMP7 [6, 12]: prevented the induction; LC3-II levels [7]: up-; p62 levels [7]: down regulated; ratio between the time length of the shocks and the number of shocks (Abcd1−/−/Abcd2−/− mice [8]): normalized
